Assay results from patent US20200199647A1, “ASSAY FOR SCREENING MODULATORS OF HOLOPHOSPHATASE ACTIVITY” (UNITED KINGDOM RESEARCH AND INNOVATION, priority 2017, published 2020).

How the values were obtained:
R15A-PP1c = target: T1, R15A-PP1c (Homo sapiens, UniProt O75807); assay: In vitro dephosphorylation of P-eIF2α by recombinant R15A-PP1c holophosphatase (10 nM PP1c); type: biochemical; details: PP1c 10 nM, 1 μM P-eIF2α, compounds 100 μM, 30° C., 16 h
T1 construct: PPP1R15A amino acids 325-636 (R15A); His6 (C); made in house; host or cells: E. coli BL21 pLysS (R15A, eIF2α); E. coli BL21/pGro7 (PP1c)
Description: (§1) PP1c was diluted to the appropriate concentration (as indicated in the figure legends) in dephosphorylation buffer immediately prior to use. Dephosphorylation reactions were carried out by pre-incubating diluted PP1c in the presence or absence of regulatory subunits (either […]), and/or compounds (all at 100 μM, except for Salubrinal which was used at 30 μM), for 15′ at RT. All compounds were diluted in DMSO, and DMSO vehicle was used in all control experiments.
The reaction was initiated by the addition of 1 μM P-eIF2α or ^33P Phosphorylase a substrates and then incubated at 30° C. for 16 h with shaking at 350 rpm. Reactions were stopped by addition of 4× Laemmli sample buffer. eIF2α samples were analyzed by immunoblotting or Phos-tag gels. […] Samples in FIG. 8 and FIG. 16 were run on a 15% SuperSep Phos-tag acrylamide gel (Alpha Laboratories) and visualized by staining with InstantBlue Protein Stain.

R15B = target: T2, R15B (Homo sapiens, UniProt Q5SWA1); assay: Pull-down: binding of P-eIF2α to MBP-tagged R15B on amylose beads; details: 200 μM compound, 200 nM MBP-R15B, 1 μM P-eIF2α, 10 min 4° C.
T2 construct: PPP1R15B amino acids 340-698 (R15B); His6 (C); made in house; host or cells: E. coli BL21 pLysS
T2 sequence (Q5SWA1 340-698): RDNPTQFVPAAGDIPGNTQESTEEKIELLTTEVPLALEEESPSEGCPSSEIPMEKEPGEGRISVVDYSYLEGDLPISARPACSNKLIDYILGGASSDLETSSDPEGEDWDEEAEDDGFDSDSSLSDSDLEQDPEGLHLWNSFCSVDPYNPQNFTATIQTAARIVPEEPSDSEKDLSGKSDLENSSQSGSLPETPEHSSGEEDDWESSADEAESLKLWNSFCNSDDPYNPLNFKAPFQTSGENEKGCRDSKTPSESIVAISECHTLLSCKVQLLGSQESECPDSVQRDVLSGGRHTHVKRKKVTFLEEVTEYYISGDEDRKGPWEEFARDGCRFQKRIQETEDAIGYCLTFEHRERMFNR
Description: (§2) Purified MBP-tagged regulatory subunits (200 nM), P-eIF2α (1 μM), PP1c ([…]), and 200 μM compounds, or DMSO vehicle, were added as appropriate to 20 μl amylose magnetic bead, pre-equilibrated with interaction buffer (50 mM Tris (pH 7.4), 200 mM NaCl, 0.05% Tween20) in 200 μl volume. All protein dilutions were carried out in interaction buffer. 5% input sample was removed, and added to 4× Laemmli sample buffer for later analysis. The beads were incubated for 10′ at 4° C. The supernatant was removed, and the beads were washed thoroughly with interaction buffer and then resuspended with 50 μl of 2× Laemmli sample buffer. Samples were run on 4-12% NuPAGE Bis-Tris gels (Life Technologies) and analysed by immunoblotting, using anti-MBP HRP (E8038) (NEB), anti-eIF2α (ab26197) (AbCam) or anti-PPP1A (ab137512) (AbCam) antibodies.

R15A [1] = target: T3, R15A (Homo sapiens, UniProt O75807); assay: Pull-down: binding of P-eIF2α to MBP-tagged R15A on amylose beads; details: 200 μM compound, 200 nM MBP-R15A, 1 μM P-eIF2α, 10 min 4° C.
T3 construct: PPP1R15A amino acids 325-636 (R15A); His6 (C); made in house; host or cells: E. coli BL21 pLysS
Description: as §2

[2] = target: T4, PP1 (1 μM) in the presence of R15B (Homo sapiens, UniProt Q5SWA1); assay: In vitro dephosphorylation of P-eIF2α using stoichiometric PP1c (1 μM) with R15B; type: biochemical; details: 1 μM PP1c, 1 μM P-eIF2α, 30° C., 16 h; compound 100 μM
T4 construct: PPP1R15B amino acids 340-698 (R15B); His6 (C); made in house; host or cells: E. coli BL21 pLysS (R15B, eIF2α); E. coli BL21/pGro7 (PP1c)
Description: as §1
The reaction was initiated by the addition of 1 μM P-eIF2α or ^33P Phosphorylase a substrates and then incubated at 30° C. for 16 h with shaking at 350 rpm. Reactions were stopped by addition of 4× Laemmli sample buffer. eIF2α samples were analyzed by immunoblotting or Phos-tag gels. P-eIF2α dephosphorylation was analysed by immunoblotting using anti-Phospho-eIF2α (SerS1) (#9721) (Cell Signaling) and anti-eIF2α (ab26197) (AbCam) antibodies. Samples in FIG. 8 and FIG. 16 were run on a 15% SuperSep Phos-tag acrylamide gel (Alpha Laboratories) and visualized by staining with InstantBlue Protein Stain.
As previously reported (Connor et al., 2001), in vitro PP1c alone (1 μM) dephosphorylated eIF2α, and in vitro co-incubation with R15A had no effect in this assay (FIG. 1A). […]

R15A [3] = target: T3, R15A; assay: Binding of R15A to biotinylated compounds on Streptavidin beads and elution
Description: Purified R15A protein was diluted to 1 μM in IP buffer (50 mM Tris [pH 7.4], 150 mM NaCl, 0.1% Tween20, 10% glycerol). 1 μM R15A, in 100 μl volume, was pre-cleared with 25 μl of Pierce Streptavidin Magnetic Beads (ThermoFisher) for 1 h at 4° C. with rotation at 20 rpm. […] Samples were incubated for 3 h at 4° C. with rotation at 20 rpm. The supernatant was removed, and samples were thoroughly washed and transferred to a fresh Eppendorf. The beads were washed thoroughly with 5×1 ml interaction buffer, with 30 min incubation each time, and then resuspended with 50 μl of 4% SDS Laemmli sample buffer. Samples were run on 4-12% NuPAGE Bis-Tris gels (Life Technologies), and analysed by immunoblotting using α-MBP HRP (E8038) (NEB) (to reveal R15A). […] Samples were incubated for 10 min at 4° C. with 20 rpm rotation. 30 μl of supernatant was added to 10 μl of 16% SDS Laemmli sample buffer. 10 μl sample was run on 4-12% NuPAGE Bis-Tris gel (Life Technologies), and analysed by immunoblotting using α-MBP HRP (E8038) (NEB) (to reveal R15A).

T3 sequence (O75807 325-636, stated change not applied): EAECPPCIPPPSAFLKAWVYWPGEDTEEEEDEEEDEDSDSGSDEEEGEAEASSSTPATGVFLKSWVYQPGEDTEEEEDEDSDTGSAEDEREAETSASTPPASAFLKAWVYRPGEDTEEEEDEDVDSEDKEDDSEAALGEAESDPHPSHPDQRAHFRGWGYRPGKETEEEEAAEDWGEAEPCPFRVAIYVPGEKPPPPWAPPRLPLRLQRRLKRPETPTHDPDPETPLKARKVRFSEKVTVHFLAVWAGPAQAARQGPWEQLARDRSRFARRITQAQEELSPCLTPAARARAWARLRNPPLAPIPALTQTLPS
T1 sequence (O75807 325-636, stated change not applied): as above
T1 sequence (P62136 7-330 partner): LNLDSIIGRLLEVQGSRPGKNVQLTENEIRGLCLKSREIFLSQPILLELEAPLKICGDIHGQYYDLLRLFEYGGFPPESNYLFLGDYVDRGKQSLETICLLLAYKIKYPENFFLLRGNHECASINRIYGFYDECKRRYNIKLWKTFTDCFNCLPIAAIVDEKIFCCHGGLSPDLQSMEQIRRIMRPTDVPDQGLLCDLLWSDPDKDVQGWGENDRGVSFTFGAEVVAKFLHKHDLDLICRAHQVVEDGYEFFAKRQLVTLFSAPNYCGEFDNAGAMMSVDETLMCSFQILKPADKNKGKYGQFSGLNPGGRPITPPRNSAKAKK
T4 sequence (P62136 7-330 partner limits assumed, one chain of several): as the sequence (P62136 7-330 partner) above

`NC(N)=N/N=C/c1cccc(Cl)c1Cl` [Raphin1] was tested, and the “inhibition of R15A-PP1c eIF2α holophosphatase” value (R15A-PP1c) was “not R15A-PP1c”, the “effect on binding of eIF2α to R15B” value (R15B) was “decreased the binding of eIF2α to R15B” and the “effect on binding of eIF2α to R15A” value (R15A [1]) was “this inhibition was not observed with R15A”. For the same molecule, the “effect on dephosphorylation of eIF2α by PP1c with R15B” value [2] was “nor the selective inhibitor of R15B, Raphin1, had any measurable effects”.

In the case of `N=C(N)N/N=C/c1c(Cl)cccc1Cl` [Guanabenz], the “inhibition of R15A-PP1c eIF2α holophosphatase” value (R15A-PP1c) is reported as “selectively inhibited R15A-PP1c”, the “effect on binding of eIF2α to R15B” value (R15B) is reported as “no such effect was observed” and the “effect on binding of eIF2α to R15A” value (R15A [1]) is reported as “decreased the binding of R15A to eIF2α”. For the same molecule, the “binding to R15A” value (R15A [3]; 0.5 mM biotinylated compound on Streptavidin beads, 1 μM R15A) was “directly bind R15A” and the “nature of binding to R15A (elution with excess compound)” value (R15A [3]; elution with 2 mM free compound) was “not covalent”.
